Reference: patent EP0474874B1, “Maillard Reaction inhibitor compositions” (Senju Pharmaceutical Co., Ltd., priority 1990, dated 1991)

Assays:
[1] = test system: furosine formation; assay: Inhibition of furosine formation (non-enzymatic glycosylation of BSA with glucose, HPLC); format: biochemical, bovine; conditions: 5 mM test compound, 20 mg/ml BSA, 50 mM glucose, 50 mM phosphate buffer pH 7.3, 4 weeks at 37 °C
Method: Sample solutions as shown below were aseptically prepared from bovine serum albumine (No. A-8022, Sigma)(hereinafter referred to as BSA), 50 mM phosphate buffer solution (pH 7.3) and the test compounds listed in Table 1 and aminoguanidine.
The sample solutions were kept for 4 weeks at 37 °C, and the amount of furosine which was formed by non-enzymatic glycosylation was determined by HPLC according to the method of Schleicher et al. [J. Clin. Biochem., 19:81-87 (1981).] Thus, the sample solutions after reaction were dialyzed, and aliquots of 1 ml were lyophylized and then hydrolyzed by the addition of 1 ml of 6 N hydrochloric acid followed by heating at 100 °C for 20 hours. After removal of hydrochloric acid by evaporation, 1 ml of water was added to each sample, and the samples were subjected to filtration using a filter with the pore size of 0.45 µm. The filtrate was used as the sample for HPLC. ODS-120T (Tosoh Corporation) was used for the column and 7 mM phosphoric acid solution was used as the eluant. The absorbance peak whose ratio of peak area at […] was 3.9/1 was regarded as the peak corresponding to furosine.
Upon the area of the peak of furosine of each sample, the inhibition rate of furosine formation by the test compound was calculated as follows. Inhibition rate (%)=(c-d)÷(c-n)×100 [formula] c; peak area of furosine of the control sample d; peak area of furosine of the test sample n; peak area of furosine of the normal sample

[2] = patient suffering from diabetes mellitus; cited from earlier work
[3] = test system: Maillard's reaction; conditions: in vitro; cited from earlier work
[4] = test system: AGE formation in arterial walls; conditions: diabetic rats, in vivo; cited from earlier work

Nc1ccc(O)cc1C(=O)O [AB-1, 5-hydroxyanthranilic acid]
Inhibition rate (%) [1]: 94.1%

Nc1c(O)cccc1C(=O)O [AB-2, 3-hydroxyanthranilic acid]
Inhibition rate (%) [1]: 69.4%

Nc1cc([N+](=O)[O-])ccc1C(=O)O [AB-3, 4-nitroanthranilic acid]
Inhibition rate (%) [1]: 47.6%

Nc1ccc(O)c(C(=O)O)c1 [AB-4, 5-aminosalicylic acid]
Inhibition rate (%) [1]: 50.7%

Nc1ccc(C(=O)O)c(O)c1 [AB-5, 4-aminosalicylic acid]
Inhibition rate (%) [1]: 70.0%
adverse effect upon treatment [2]: developed hypoglycaemic coma

Nc1cccc(C(=O)O)c1O [AB-6, 3-aminosalicylic acid]
Inhibition rate (%) [1]: 53.4%

Nc1cc(C(=O)O)ccc1O [AB-7, 3-amino-4-hydroxybenzoic acid]
Inhibition rate (%) [1]: 60.4%

N=C(N)NN [aminoguanidine]
inhibition of Maillard's reaction [3]: inhibits Maillard's reaction in vitro
Inhibition rate (%) [1]: 8.0%
AGE formation in arterial walls [4]: suppresses AGE formation in arterial walls of diabetic rats in vivo
